Where two headings read alike, the source gives them in different places.
Legend:
[1] = Influence on pancreatic secretion of the narcotized rat; format: in vivo, rat (male Sprague-Dawley); conditions: in vivo, LD50 mouse i.p. / ED50 rat i.d.
Text: (§1) Male Sprague-Dawley rats (body weight from 250 to 300 g) are narcotized with 1.2 g/kg urethane i.m. Then the abdominal cavity is opened medially, the bile duct is ligatured shortly above the place where it leads into the duodenum and also near to the hepatic duct, and both sections are catheterized towards the liver.
(§2) As in the rat all the pancreatic ducts lead out into the central section of the bile duct; it is possible in this way to discharge the pancreatic secretion separately from the distal (ligatured) section and the bile separately from the proximal section of the bile duct.
(§3) The quantities of pancreatic juice and bile juice obtained are measured at intervals of 30 minutes over a period from 2 hours before to 3 hours after the intraduodenal (V. jugularis externa) administration of the compounds to be tested (quantity of liquid administered 5 ml/kg).
(§4) The body temperature of the animals is maintained at 36° to 38° C. by means of electric blankets and radiation; the temperature is monitored rectally.
(§5) The liquid volumes of the 30-minute fractions after the administration of the substance are related in each case to the quantity of bile or pancreatic juice secreted prior to the application of the substance (=100%, mean of the last two measurements). The maximum percentage increase in the pancreatic or bile secretion is represented in dependence upon dose, and from this the ED50 is determined by interpolation.

[2] = tested on: pancreatic secretion; test: as above; format: in vivo, rat (male Sprague-Dawley); conditions: 0.5 h, narcotized rat, i.d., liquid volume
Text: as §1, §2, §3, §4, §5

[3] = Antihepatotoxic effect: duration of hexobarbital sleep of the rat after liver damage by CCl4; conditions: rat, in vivo
Description: (§6) The compounds to be tested are administered 1 hour prior to the administration of CCl4 orally in a liquid volume of 10 ml/kg.
(§7) The antihepatotoxic effect of the compounds to be tested (sodium salts in aqueous solution) is determined by the reduction of the prolongation of sleeping period caused by the CCl4 liver cell damage in the groups treated, as compared with the prolongation of the sleeping period of the CCl4 control group (=100%). […]

[4] = tested on: liver damage by CCl4; test: as above; conditions: Rattus norvegicus, po; for ED25: read-out: ED25 antihepatotoxic effect (shortens hexobarbital narcosis by 25%); for ED50: read-out: ED50 antihepatotoxic effect (shortens hexobarbital narcosis by 50%)
Description: as §6, §7

[5] = tested on: stomach ulcer; test: Antiulcerogenic (stomach-protective) action, pylorus ligature and acetylsalicylic acid; format: in vivo, rat (female); conditions: 4 h, rat, intraduodenally, read-out: ED50 antiulcerogenic action (dose which reduces the mean ulcer index by 50%)
Description: (§8) The ulcer provocation is carried out on rats which have been made to fast for 24 hours (female, 180 to 200 g) by ligature of the pylorus (under ether narcosis) and the oral application of 100 mg/10 ml/kg acetylsalicylic acid. The administration of the substances was carried out intraduodenally (2.5 ml/kg) immediately after the ligature of the pylorus. The closure of the wound was carried out by means of Michel clamps. 4 hours after this, the animals were autopsied (while inebriated with ether) by dislocation of the atlas, and the stomach was resected. The stomach, opened longitudinally, is fixed on a cork board and, using a stereomicroscope with an enlargement of 10×, the number and size (=diameter) of any ulcers present were determined. The product of the degree of severity (according to the following scale of points) and the number of ulcers was used as the individual ulcer index.
(§9) As a measure of antiulcerogenic effect the reduction in the mean ulcer index of each treated group, as compared with that of the control group (=100%), was used.

[6] = as above; format: in vivo, rat (female); conditions: in vivo, LD50 mouse i.p. / ED50 rat i.d.
Description: as §8, §9

[7] = Determination of toxicity (lethal action on the mouse after intraperitoneal application); format: in vivo; conditions: in vivo, ip
Description: The toxicity investigations are carried out on female NMRI mice (body weight 22 to 26 g). The animals (5 animals per dose) are given food and water ad lib. Different doses of the substances are administered intraperitoneally. The duration of observation is 14 days. The LD50, i.e. the dose at which 50% of the animals die, is determined graphically from the dose/effect curve.

[8] = tested on: glucose formation from lactate and pyruvate in isolated perfused liver; test: Inhibition of the formation of glucose from lactate and pyruvate in the isolated perfused rat liver; set-up: species or system rat (male Sprague-Dawley); conditions: for Glucose formation, % change: isolated perfused liver of fasting rats; for ED50 inhibition of formation of glucose from lactate and pyruvate: from 4 concentrations, 0.02 to 1.00 mmol/liter
Description: For this purpose young male Sprague-Dawley rats (160 to 200 g) are used. The rats are kept in cages of up to 5 animals in a temperature-controlled room (23° C.) with a fixed day/night rhythm (12/12 hours).
Food is withheld from the animals for from 20 to 22 hours prior to the operation. They are allowed to take water ad lib. The operation and the perfusion of the liver are carried out using the technique of R. Scholz et al. [Eur. J. Biochem. 38 (1973) 64 to 72]. The perfusion liquid used is Krebs-Henseleit bicarbonate buffer (pH 7.4), which is saturated with an oxygen/carbon dioxide mixture (95/5) and contains 1.6 mmol/liter of L-lactate and 0.2 mmol/liter of pyruvate. The perfusion liquid is pumped into the liver via a cannula inserted into the portal vein. The effluent perfusion liquid is collected via a cannula inserted into the Vena cava. The liver is perfused for about 2 hours. The test compounds are infused for 16 minutes each from the 32nd to the […] after the perfusion in increasing concentrations (0.02 to 1.00 mmol/liter).
Samples of the effluent perfusion liquid are collected at one-minute intervals and analyzed for glucose, lactate and pyruvate (using standard enzymatic methods). The percentages shown in Table VIII relate to the condition occurring before and after the administration of the compounds, the changes caused solely by lactate and pyruvate being set as being equal to 100%.

[9] = Table VII, read-out: TQ [LD50/ED50], pancreatic secretion
[10] = 30 min fraction, Table VII, read-out: ED50 pancreatic secretion (dose which brings about an increase in pancreatic secretion of a maximum of 50%)
[11] = TQ LD50/ED25, antihepatotoxic effect, LD50 mouse i.p. / ED25 rat p.o., Table V
[12] = TQ LD50/ED50, antihepatotoxic effect, LD50 mouse i.p. / ED50 rat p.o., Table V
[13] = Table IV, read-out: TQ (LD50/ED50), antiulcerogenic action
[14] = 0.2 mmole/liter in the perfusate, Table VIII
[15] = Table X, read-out: TQ LD50/ED50, pancreatic secretion
[16] = 30 minute fraction, Table X, read-out: ED50 pancreatic secretion (dose which brings about an increase in pancreatic secretion by a maximum of 50%)
[17] = TQ LD50/ED25, antihepatotoxic effect, LD50 mouse i.p. / ED25 rat p.o., Table XI
[18] = Table IX, read-out: TQ LD50/ED50, antiulcerogenic action

Structure (SMILES): O=C(O)CCCN(C(=O)c1ccc(Cl)cc1)c1ccc(-c2ccccc2)cc1 [Serial No. 23, 4-[p-chloro-N-(biphenyl-4-yl)benzamido]butyric acid]
- selectivity ratio [1, 9]: 120
- ED50 [2, 10]: 1 mg/kg
- selectivity ratio [3, 11]: 8
- selectivity ratio [3, 12]: 5.5
- ED25 [4]: 15 mg/kg
- ED50 [4]: 22 mg/kg
- ED50 ([5]; Table IV): ~15 mg/kg
- selectivity ratio [6, 13]: ~8
- LD50 at 336 h ([7]; mouse, Table IV): 120 mg/kg

Structure (SMILES): O=C(O)CCCCCN(C(=O)c1ccc(Cl)cc1)c1ccccc1-c1ccccc1 [Serial No. 24, 6-[p-chloro-N-(biphenyl-2-yl)benzamido]caproic acid]
- selectivity ratio [3, 11]: ~14.4
- selectivity ratio [3, 12]: 9.3
- ED25 [4]: ~9 mg/kg
- ED50 [4]: 14 mg/kg
- ED50 ([5]; Table IV): ~40 mg/kg
- selectivity ratio [6, 13]: ~3.3
- Glucose formation, % change [8, 14]: -99%
- ED50 inhibition of formation of glucose from lactate and pyruvate ([8]; Table VIII): 23 µg/mL
- LD50 at 336 h ([7]; mouse, Table IV): 130 mg/kg

Structure (SMILES): O=C(O)CCCN(C(=O)c1cccc(C(F)(F)F)c1)c1ccccc1-c1ccccc1 [Serial No. 25, 4-[m-trifluoromethyl-N-(biphenyl-2-yl)benzamido]butyric acid]
- selectivity ratio [1, 9]: 110
- ED50 [2, 10]: 1 mg/kg
- selectivity ratio [3, 11]: 11
- selectivity ratio [3, 12]: 3.7
- ED25 [4]: 10 mg/kg
- ED50 [4]: 30 mg/kg
- ED50 ([5]; Table IV): 10 mg/kg
- selectivity ratio [6, 13]: 11
- Glucose formation, % change [8, 14]: -77%
- ED50 inhibition of formation of glucose from lactate and pyruvate ([8]; Table VIII): 34 µg/mL
- LD50 at 336 h ([7]; mouse, Table IV): 110 mg/kg

Structure (SMILES): O=C(O)CCCN(C(=O)c1ccc(F)cc1)c1ccccc1-c1ccccc1 [Serial No. 26, 4-[p-fluoro-N-(biphenyl-2-yl)benzamido]butyric acid]
- selectivity ratio [1, 9]: 84
- ED50 [2, 10]: 2.5 mg/kg
- selectivity ratio [3, 11]: 131
- selectivity ratio [3, 12]: 75
- ED25 [4]: 1.6 mg/kg
- ED50 [4]: 2.8 mg/kg
- ED50 ([5]; Table IV): ~55 mg/kg
- selectivity ratio [6, 13]: ~3.8
- Glucose formation, % change [8, 14]: -51%
- ED50 inhibition of formation of glucose from lactate and pyruvate ([8]; Table VIII): 76 µg/mL
- LD50 at 336 h ([7]; mouse, Table IV): 210 mg/kg

Structure (SMILES): O=C(O)CCCN(C(=O)c1ccc(Cl)cc1)c1ccccc1-c1ccccc1 [Serial No. 31, 4-[p-chloro-N-(biphenyl-2-yl)benzamido]butyric acid]
- selectivity ratio [1, 9]: 180
- ED50 [2, 10]: 1 mg/kg
- selectivity ratio [3, 11]: > 180
- selectivity ratio [3, 12]: 51.4
- ED25 [4]: < 1 mg/kg
- ED50 [4]: 3.5 mg/kg
- ED50 ([5]; Table IV): 35 mg/kg
- selectivity ratio [6, 13]: 5.1
- Glucose formation, % change [8, 14]: -79%
- ED50 inhibition of formation of glucose from lactate and pyruvate ([8]; Table VIII): 43 µg/mL
- LD50 at 336 h ([7]; mouse, Table IV): 180 mg/kg

Structure (SMILES): O=C(O)CCCCN(C(=O)c1ccccc1O)c1ccccc1-c1ccccc1 [Serial No. 32, 5-[o-hydroxy-N-(biphenyl-2-yl)benzamido]valeric acid]
- ED50 ([5]; Table IV): < 10 mg/kg
- selectivity ratio [6, 13]: > 20
- LD50 at 336 h ([7]; mouse, Table IV): > 200 mg/kg

Structure (SMILES): COc1ccc(N(CCCC(=O)O)C(=O)c2ccc(Cl)cc2)cc1-c1ccccc1 [Serial No. 35, 4-[p-chloro-N-(6-methoxybiphenyl-3-yl)benzamido]butyric acid]
- selectivity ratio [1, 9]: 80
- ED50 [2, 10]: 1.5 mg/kg
- ED50 ([5]; Table IV): < 10 mg/kg
- selectivity ratio [6, 13]: > 12
- LD50 at 336 h ([7]; mouse, Table IV): 120 mg/kg

Structure (SMILES): O=C(O)CCCN(C(=O)c1ccc(Cl)cc1)c1cccc2ccccc12 [Serial No. 38, 4-{p-chloro-[N(α-naphthyl)]benzamido}butyric acid]
- selectivity ratio [1, 15]: 56
- ED50 [2, 16]: 2.5 mg/kg
- selectivity ratio [3, 17]: ~28
- selectivity ratio ([3]; TQ LD50/ED50, antihepatotoxic effect, LD50 mouse i.p. / ED50 rat p.o., Table XI): 3.5
- ED25 [4]: ~5 mg/kg
- ED50 [4]: 40 mg/kg
- Glucose formation, % change ([8]; 0.2 mmol/liter in the perfusate, Table XIII): -48%
- ED50 inhibition of formation of glucose from lactate and pyruvate ([8]; Table XIII): 81 µg/mL
- LD50 at 336 h ([7]; mouse i.p., Table X): 140 mg/kg

Structure (SMILES): CCOc1ccc(N(CCCC(=O)O)C(=O)c2ccc(Cl)cc2)c2ccccc12 [Serial No. 43, 4-{p-chloro-[N-(4-ethoxy-1-naphthyl)]benzamido}butyric acid]
- selectivity ratio [1, 15]: 100
- ED50 [2, 16]: 0.7 mg/kg
- ED50 ([5]; Table IX): 10 mg/kg
- selectivity ratio [6, 18]: 7
- LD50 at 336 h ([7]; mouse i.p., Table IX): 70 mg/kg

Structure (SMILES): CC(CCC(=O)O)N(C(=O)c1ccc(Cl)cc1)c1cccc2ccccc12 (stereo not drawn) [Serial No. 45, 4-{p-chloro-[N-(α-naphthyl)]benzamido}valeric acid]
- selectivity ratio [1, 15]: ~180
- ED50 [2, 16]: ~1 mg/kg
- selectivity ratio [3, 17]: ~12
- ED25 [4]: ~15 mg/kg
- ED50 ([5]; Table IX): < 10 mg/kg
- selectivity ratio [6, 18]: > 18
- LD50 at 336 h ([7]; mouse i.p., Table IX): 180 mg/kg

Structure (SMILES): CC1(C)[C@@H](OC(=O)CCC(=O)O)CC[C@]2(C)[C@H]3C(=O)C=C4[C@@H]5C[C@@](C)(C(=O)O)CC[C@]5(C)CC[C@@]4(C)[C@]3(C)CC[C@@H]12 [compound 19]
- ED50 ([5]; Table IV): 50 mg/kg
- selectivity ratio [6, 13]: 2.4
- LD50 at 336 h ([7]; mouse, Table IV): 120 mg/kg

Structure (SMILES): CC(C)C(=O)N(CCCCC(=O)O)c1cccc2ccccc12 [compound 51]
- ED50 ([5]; Table IX): < 10 mg/kg
- selectivity ratio [6, 18]: ~20
- LD50 at 336 h ([7]; mouse i.p., Table IX): > 200 mg/kg

Structure (SMILES): CCC(=O)N(CCCC(=O)O)C1CCCc2cc(OC)ccc21 (centres unmarked) [compound 52]
- selectivity ratio [1, 15]: > 200
- ED50 [2, 16]: < 1 mg/kg
- ED50 ([5]; Table IX): < 10 mg/kg
- selectivity ratio [6, 18]: > 20
- LD50 at 336 h ([7]; mouse i.p., Table IX): > 200 mg/kg

Structure (SMILES): O=C(O)CCCN(C(=O)c1ccc(Cl)c(Cl)c1)c1ccc2c(c1)CCC2 [compound 53]
- selectivity ratio [1, 15]: > 180
- ED50 [2, 16]: < 1 mg/kg
- selectivity ratio [3, 17]: 18
- ED25 [4]: 10 mg/kg
- ED50 ([5]; Table IX): < 10 mg/kg
- selectivity ratio [6, 18]: > 18
- LD50 at 336 h ([7]; mouse i.p., Table IX): 180 mg/kg

Structure (SMILES): O=C(O)CCCCN(C(=O)c1ccc(Cl)cc1)c1ccc2c(c1)CCC2 [compound 54]
- ED50 ([5]; Table IX): ≥ 10 mg/kg
- selectivity ratio [6, 18]: ≤ 16
- LD50 at 336 h ([7]; mouse i.p., Table IX): 160 mg/kg
